Reference: article PMC2263054, “Functional evolution of the vitamin D and pregnane X receptors” (BMC Evolutionary Biology, 2007)
Like-named read-outs stand apart in the source and are kept apart here.

Legend:
[1] = test system: PXR; test: zebrafish in vivo liver transcription, semi-quantitative RT-PCR: PXR
Description: (§1) Adult zebrafish were purchased from a commercial fish supplier and acclimatized for at least two-weeks in 20 L tanks with flow-through freshwater at 22°C. A single dose of 15 mg/kg of 5α-cyprinol, 5β-cyprinol 27-sulfate, 5α-scymnol or 5β-scymnol-27 sulfate, dissolved in saline, was injected intraperitoneally. A control group was injected with saline. After 48 hr, the animals were decapitated and livers of three fish (n = 5 each group) were removed, pooled and weighed, totalizing 15 fish per group. Fish were not fed throughout the experimental period. […].
(§2) To study the transcription of CYP3C1, ABCB5, PXR, GAPDH and β-actin genes in zebrafish, initial fragments of these genes were identified (Genbank: AW202769, Genbank: BQ284593, Genbank: AAM22215, Genbank: BC083506, Genbank: AF057040, respectively). The PCR primers for CYP3C1 were designed using MacVector Software and primers for MDR1 were designed using Primer 3 Software (Whitehead Institute for Biomedical Research; [75]). Primer pairs for amplifying CYP3C1 fragment were 5'-[…]-3' (sense) and 5'-[…]-3' (antisense) and for amplifying ABCB5 were 5'-[…]-3' (sense) and 5'-[…]-3' (antisense). The PCR primers for PXR were 5'-[…]-3' (sense) and 5'-[…]-3' (antisense), for amplifying GAPDH were 5'-[…]-3' (sense) and 5' […] 3' (antisense) and for β-actin were 5'-[…]-3' (sense) and 5'-[…]-3' (antisense). RNA was isolated using Trizol (Invitrogen) according to manufacturer's instructions. Purity and concentration of RNA of each sample were verified at 260 nm. The RNA integrity was checked by non-denaturing gel electrophoresis using 1 μg of total RNA in each sample.
(§3) Two micrograms of total RNA were reversed transcribed using Ominiscript RT Kit (Qiagen, Valencia, CA, USA). cDNA concentration was checked at 260 nm, and the amount adjusted to 1 μg to perform semi-quantitative RT-PCR. The expected size of the PXR, Cyp3C1, abcb5, GAPDH and β-actin fragments were 577, 477, 218, 234 and 550 bp, respectively. Biotools DNA polymerase (Biotools B&M Labs, S.A., Madrid, Spain) kit was used for the PCR reaction using a thermocycler Personal Mastercycler (Eppendörf) with the following PCR program: 5 cycles of 94°C for 5 s, 72°C for 35 s; 5 cycles of 94°C for 5 s, 70°C for 10 s, 72°C for 35 s; and 23, 24, 35, 15 and 24 cycles (PXR, Cyp3C1, abcb5, GAPDH and β-actin, respectively) of 94°C for 5 s, 61, 54, 48, 49 and 61°C for 10 s (PXR, Cyp3C1, abcb5, GAPDH and β-actin, respectively), and 72°C for 35 s. The PXR, CYP3C1, ABCB5 and GAPDH transcript levels were quantified using Gel-Quant™ (Multiplexed Biotechologies) and β-actin was used to normalize the data. The Shapiro-Wilk W test was used to evaluate normality. When data were parametric the analysis was performed using Student t test; otherwise Mann Whitney U test was applied. […]

[2] = test system: β-actin; test: zebrafish in vivo liver transcription, semi-quantitative RT-PCR: β-actin
Description: as §1, §2, §3

[3] = molecular target: T1, Zebrafish VDR (Danio rerio, UniProt Q9PTN2); test: luciferase reporter transactivation assay in HepG2-NTCP cells, GAL4/zfVDR LBD chimera with tk-UAS-Luc; assay type: cell-based; settings: HepG2-NTCP cells, luciferase reporter; unit not given; also cells saying No effect
T1 sequence (Q9PTN2 121-453): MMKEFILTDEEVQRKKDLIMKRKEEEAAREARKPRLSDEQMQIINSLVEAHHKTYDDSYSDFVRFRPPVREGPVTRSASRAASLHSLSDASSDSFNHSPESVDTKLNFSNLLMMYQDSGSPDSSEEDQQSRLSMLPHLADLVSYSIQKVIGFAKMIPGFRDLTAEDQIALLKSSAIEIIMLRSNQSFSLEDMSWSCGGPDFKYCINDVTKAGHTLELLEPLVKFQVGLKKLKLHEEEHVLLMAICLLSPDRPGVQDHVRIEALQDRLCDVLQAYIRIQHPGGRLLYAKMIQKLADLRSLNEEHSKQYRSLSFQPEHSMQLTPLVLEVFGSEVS

[4] = test system: zebrafish PXR; settings: cited from earlier work
[5] = molecular target: T2, Mouse VDR (Mus musculus, UniProt P48281); test: luciferase reporter transactivation assay in HepG2-NTCP cells, full-length mVDR with CYP3A4-PXRE-Luc; settings: HepG2-NTCP cells, luciferase reporter; unit not given; also cells saying No effect
T2 sequence (P48281 1-422): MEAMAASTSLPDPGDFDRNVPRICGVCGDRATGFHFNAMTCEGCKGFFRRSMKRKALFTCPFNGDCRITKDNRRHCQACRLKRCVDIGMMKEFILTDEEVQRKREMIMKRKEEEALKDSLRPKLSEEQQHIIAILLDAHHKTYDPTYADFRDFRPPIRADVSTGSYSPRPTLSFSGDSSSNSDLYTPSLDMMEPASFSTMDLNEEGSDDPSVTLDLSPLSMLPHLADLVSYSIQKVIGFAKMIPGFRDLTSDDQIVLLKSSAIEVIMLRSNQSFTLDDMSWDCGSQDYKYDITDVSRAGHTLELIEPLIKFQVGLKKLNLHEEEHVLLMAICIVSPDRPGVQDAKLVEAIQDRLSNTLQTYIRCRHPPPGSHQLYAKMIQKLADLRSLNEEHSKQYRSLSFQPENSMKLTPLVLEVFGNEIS

[6] = molecular target: T3, Human VDR (Homo sapiens, UniProt P11473); test: luciferase reporter transactivation assay in HepG2-NTCP cells, full-length hVDR with CYP3A4-PXRE-Luc; settings: HepG2-NTCP cells, luciferase reporter; unit not given; also cells saying No effect
T3 sequence (P11473 1-427): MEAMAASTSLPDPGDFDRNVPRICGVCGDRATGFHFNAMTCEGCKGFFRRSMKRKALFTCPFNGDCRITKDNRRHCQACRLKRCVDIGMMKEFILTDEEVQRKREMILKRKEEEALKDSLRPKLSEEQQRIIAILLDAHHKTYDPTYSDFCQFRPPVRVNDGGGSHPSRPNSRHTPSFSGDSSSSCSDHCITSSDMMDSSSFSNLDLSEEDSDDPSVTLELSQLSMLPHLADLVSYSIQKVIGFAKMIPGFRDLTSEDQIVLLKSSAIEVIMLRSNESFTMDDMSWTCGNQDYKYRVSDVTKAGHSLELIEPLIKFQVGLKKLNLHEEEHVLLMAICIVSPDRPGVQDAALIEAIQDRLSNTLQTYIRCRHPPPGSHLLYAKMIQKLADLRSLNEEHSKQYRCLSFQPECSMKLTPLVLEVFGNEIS

[7] = zebrafish, 15 mg/kg intraperitoneally, single dose, 48 hr

SMILES	liver transcription of PXR [1, 7]	liver transcription of β-actin [2, 7] [arbitrary units]	Zebrafish VDR EC50 ± SD [3]	activity at recombinant zebrafish PXR ([4]; ref [29],[53])	Mouse VDR EC50 ± SD [5]	Human VDR EC50 ± SD [6]	liver transcription of PXR ([1]; ip, 15 mg/kg, 48 h)	liver transcription of β-actin ([2]; ip, 15 mg/kg, 48 h) [arbitrary units]	activity at recombinant zebrafish PXR [4]
C[C@H](CCCC(CO)COS(=O)(=O)O)[C@H]1CC[C@H]2[C@@H]3[C@H](O)C[C@H]4C[C@H](O)CC[C@]4(C)[C@H]3C[C@H](O)[C@]12C (stereo partly drawn) [5α-Cyprinol 27-sulfate]	1.50 ± 0.67 arbitrary units normalized to β-actin	38.2 ± 20.7	No effect	efficacious activator of recombinant zebrafish PXR	No effect	No effect	–	–	–
C[C@H](CCCC(CO)CO)[C@H]1CC[C@H]2[C@@H]3[C@H](O)C[C@H]4C[C@H](O)CC[C@]4(C)[C@H]3C[C@H](O)[C@]12C [5α-Cyprinol, 5α-cholestan-3α,7α,12α,26,27-pentol]	–	–	No effect	–	No effect	No effect	0.58 ± 0.33 arbitrary units normalized to β-actin	44.7 ± 19.6	both inactive at recombinant zebrafish PXR
